Source: BindingDB's records for doi:10.7270/Q2VX0F3D (Burnham Center For Chemical Genomics, 2012)

Target: T1, Corticotropin-releasing factor-binding protein (Homo sapiens, UniProt P24387)
T1 sequence (P24387 whole entry): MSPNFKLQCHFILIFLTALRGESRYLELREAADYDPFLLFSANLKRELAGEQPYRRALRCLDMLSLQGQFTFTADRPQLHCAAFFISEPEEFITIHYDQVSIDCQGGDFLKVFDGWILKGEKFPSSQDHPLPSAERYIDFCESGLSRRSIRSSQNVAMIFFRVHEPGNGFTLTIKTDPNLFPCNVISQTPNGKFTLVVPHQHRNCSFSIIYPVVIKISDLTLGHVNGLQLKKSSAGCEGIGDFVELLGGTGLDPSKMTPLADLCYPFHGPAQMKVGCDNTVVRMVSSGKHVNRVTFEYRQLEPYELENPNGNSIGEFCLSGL
Experiment: activators of CRF receptor 2 with binding protein – uHTS hits, confirmation (AID 602473)

Row | Compound | EC50 [µM]
1 | Nc1ccc2c(c1)C(N=O)c1ccccc1-2 (stereo not drawn) [SMR001570622] | > 53
2 | CN(C)c1ccc(C(N=O)c2ccccc2)cc1 (stereo not drawn) [[4-(dimethylamino)phenyl]-phenylmethanone oxime] | > 53
3 | N#CC(C(=O)COC(=O)c1ccccc1O)c1nc2ccccc2s1 (stereo not drawn) [[(3Z)-3-(3H-1,3-benzothiazol-2-ylidene)-3-cyano-2-oxidanylidene-propyl] 2-oxidanylbenzoate] | > 53
4 | O=NC(N1CCOCC1)P(=O)(N1CCOCC1)N1CCOCC1 (stereo not drawn) [bis(4-morpholinyl)phosphoryl-(4-morpholinyl)methanone oxime] | > 53
5 | CCOC(=O)C1CCCN(c2cc(O)n(-c3ccccc3)c2O)C1 (stereo not drawn) [ethyl 1-(2,5-dioxo-1-phenylpyrrolidin-3-yl)piperidine-3-carboxylate] | > 53
6 | CCOC(=O)c1c(NC=C2C(=O)NC(=S)NC2=O)sc2c1CCC2 [ethyl 2-[(E)-(4,6-dioxo-2-sulfanylidene-1,3-diazinan-5-yl)methylideneamino]-5,6-dihydro-4H-cyclopenta[b]thiophene-3-carboxylate] | > 53
7 | COC(=O)C1=C(C)NC(=O)C1=CNc1ccc(C(C)C)cc1 [methyl (4E)-2-methyl-5-oxidanylidene-4-[[(4-propan-2-ylphenyl)amino]methylidene]-1H-pyrrole-3-carboxylate] | > 53
8 | COC(=O)Cc1sc(=O)[nH]c1Nc1ccc(OC)cc1 [methyl {4-[(4-methoxyphenyl)imino]-2-oxo-1,3-thiazolidin-5-yl}acetate] | > 53
